According to US20200316087A1, “NOVEL COMBINATION THERAPY FOR ANXIETY DISORDERS, EPILEPSY, AND PAIN” (priority 2017, published 2020):
“Also recorded” adds a separate entry of the source.

What was measured:
PTZ seizure threshold = assay: Pentylenetetrazole (PTZ, i.v.)-induced seizure threshold; assay type: in vivo, rats; conditions: for PTZ Threshold to Criteria: MED for producing ≥2× PTZ seizure threshold at baseline; for PTZ Threshold Poteny (MED): lowest dose with statistically significant effect, PTZ i.v.; for PTZ Threshold Poteny (MED) / effect on dose of PTZ required to induce convulsions: rats; for effect on dose of PTZ required to induce convulsions: PTZ i.v. infusion, pretreatment 30 min
Description: Male […] Sprague-Dawley rats (Indianapolis, Ind.) were randomly assigned to treatment groups and dosed with vehicle (vehicle=1% carboxymethyl cellulose) with diazepam (0.1, 0.3, or 1 mg/kg) or test compound (3, 10, 30, or 60 mg/kg) 30 minutes prior to testing. Rats were placed in a restrainer and a winged infusion needle was inserted into the lateral tail vein. Intravenous infusion with 10 mg/ml PTZ at a rate of 0.5 ml/min was initiated until a clonic convulsion occurred, and the time to clonic convulsion was recorded in sec or a maximum of 4 min was recorded. Following infusion, rats are euthanized. The dose of PTZ required to elicit a clonic convulsion was calculated using the infusion rate, concentration of PTZ, time to clonic convulsion, and animal weight.

6 Hz-induced seizures = assay: 6 Hz (44 mA) seizure model; assay type: in vivo; conditions: mice; for Number protected/number tested: 2 hr post dosing
Description: (§1) This seizure model is utilized to screen for drugs that might […] by other screening approaches. For example, the highly used anticonvulsant leviteracetam was effective in this test but not in the pentylenetetrazole assay. Adult, male mice were subjected to 6 Hz stimulation at 44 mA as originally described by Barton et al. (Epilepsy Res. 2001; 47:217-27) and conducted per protocol of the NTH Anticonvulsant Screening Program (available online from the National Institute of Neurological Disorders and Stroke—6 Hz 44 mA Psychomotor Seizure Model, Mouse). Briefly, a mouse was dosed with KRM-II-81, p.o., and 2 hr later given 6 Hz stimulation for 3 sec delivered through corneal electrodes at 44 mA and observed for the presence or absence of seizure activity. A separate group of mice was dosed with higher doses of KRM-II-81 and observed for potential deficits in motor performance and overt signs of toxicity at 4 hr post dosing.

motor performance = assay: Observed motor effects / overt toxicity 4 hr after oral dosing; assay type: in vivo; conditions: for Observation (motor effects) / Number with observed motor effects: 4 hr post dosing, mice
Description: as §1

[1] = Unbound plasma and brain concentrations after i.p. dosing; assay type: in vivo, rats; conditions: for Unbound brain concentration / Unbound plasma concentration: male Sprague-Dawley rats, n=3, mean ± S.E.M.
Description: (§2) (Table 4). Using these unbound drug concentrations, the PI based on drug levels in plasma was 3 and that based upon brain drug levels was 3.8.

rat E18 cortical neurons = assay: Microelectrode array recording of cultured cortical neuron network; assay type: cell-based; conditions: 3 μM
Description: Meastro 12 well plates (Axion Biosystems, Atlanta, Ga.) were treated with a solution of 0.1% polyethylenimine for 2-4 hours, rinsed with sterile H2O and let dry overnight. Prior to plating of neurons, the MEAs were treated with solution of 20 μg/ml laminin for a minimum of 1 hour.
Cortices isolated from […] (MEA) were obtained from BrainBits LLC, (Springfield, Ill.) and digested enzymatically with TrypLE Express (Gibco), After 15 minutes of digestion, the tissue was mechanically dissociated with a series of sterile fire-polished glass pipettes of decreasing diameter. The dissociated neurons were plated directly onto substrate-integrated MEA plates and incubated in Nb Active1 (Brainbits LLC, Springfield, Ill.) supplemented with 5% dialyzed fetal bovine serum, 0.25% Glutamax (Gibco). Cell cultures were maintained in tissue incubator (37° C., 6% CO2) and fed twice a week by exchanging half of the medium. The experiments were performed on DIV 19-25 thus allowing partial maturation of the neurons. Prior to the experiment, the cell culture media was replaced with external buffer containing: 129 mM NaCl, 5 mM KCl, 2 mM CaCl, 1 mM […], 10 mM HEPES, 10 mM glucose. To achieve hyper-excitation the external buffer was modified by removal of magnesium or by addition of 1 mM 4aminopyridine (4-AP).
The recordings were obtained at 37° C. using Meastro System with integrated AxIS 2.3 analysis software (Axion Biosystems, Atlanta, Ga.). Channels were sampled simultaneously with a gain of 1200× and a sampling rate of 12.5 kHz/channel. On-line spike detection was done with the AXIS adaptive spike detector. For recordings, a Butterworth band-pass filter (with a high-pass cutoff of 75 Hz and low-pass cutoff of 4000 Hz) was applied along with a variable threshold spike detector set at 7× standard deviation of the rms-noise on each channel. Only wells that did show spontaneous activity (more than 0.3 Hz) on the day planned for the experiment were treated with a compound. Burst was defined as a minimum of 5 spikes occurring with an interspike interval of less than 100 ms. A minimum of one burst per minute was required for bursting analysis. Compounds were added by manual pipetting and the activity was sampled for six minutes prior and post compound addition.
The data were normalized to baseline activity and reported as mean±standard error of the mean (SEM). For single treatment a single sample t-test was used. To compare between group effects, analysis of variance (ANOVA) with Dunnett's multiple comparison test were utilized; P<0.05 was considered significant.

anticonvulsant efficacy = assay: ED50 for anticonvulsant efficacy (model not stated); assay type: in vivo; conditions: Rattus norvegicus, ip, rats
Description: as §2

C#Cc1ccc2c(c1)C(c1ccccn1)=NCc1c(-c3cnco3)ncn1-2 [KRM-II-81, 5-(8-ethynyl-6-(pyridin-2-yl)-4H-benzo[f]imidazo[1,5-a][1,4]diazepin-3-yl)oxazole]
PTZ Threshold to Criteria (PTZ seizure threshold): 30 mg/kg | PTZ Threshold Poteny (MED) (PTZ seizure threshold): 10 mg/kg | dose of PTZ required to induce convulsions (PTZ seizure threshold; pretreated with 10 mg/kg of KRM-II-81, vehicle baseline 35.1±1.2 mg/kg): 71 mg/kg | effect on dose of PTZ required to induce convulsions (PTZ seizure threshold): increased the dose of PTZ required to induce convulsions | Number protected/number tested (6 Hz-induced seizures; dose 10, p.o.): 0/8 | Number protected/number tested (6 Hz-induced seizures; dose 25, p.o.): 3/8 | Number protected/number tested (6 Hz-induced seizures; dose 50, p.o.): 7/8 | 6 Hz Potency (MED) (6 Hz-induced seizures; p.o., doses 10-50 mg/kg): 50 mg/kg | loss of righting (mice affected) (motor performance; 150 mg/kg p.o.): 1/8 | loss of righting (mice affected) (motor performance; 200 mg/kg p.o.): 1/8 | more severe tremor (mice affected) (motor performance; 200 mg/kg p.o.): 1/8 | Observation (motor effects) (motor performance; dose 100 mg/kg, p.o.): Mild tremor; also recorded: tremors | Number with observed motor effects (motor performance; dose 50, p.o.): 0/8 | Number with observed motor effects (motor performance; dose 100, p.o.): 3/8 | Number with observed motor effects (motor performance; dose 150, p.o.): 5/8 | Observation (motor effects) (motor performance; dose 150, p.o.): tremor, unable to grasp | Number with observed motor effects (motor performance; dose 200, p.o.): 8/8 | Observation (motor effects) (motor performance; dose 200, p.o.): more severe tremor'; also recorded: loss of righting | Unbound brain concentration ([1]; 17.3 mg/kg i.p.): 1.64 ± 0.141 µM | Unbound plasma concentration ([1]; 17.3 mg/kg i.p.): 3.29 ± 0.107 µM | Unbound brain concentration ([1]; 121 mg/kg i.p.): 6.25 ± 1.652 µM | Unbound plasma concentration ([1]; 121 mg/kg i.p.): 10 ± 2.147 µM | 121/17.3 Ratio, brain ([1]; ratio of unbound brain concentrations at 121 and 17.3 mg/kg i.p.): 3.81 | 121/17.3 Ratio, plasma ([1]; ratio of unbound plasma concentrations at 121 and 17.3 mg/kg i.p.): 3.04 | frequency of bursting (rat E18 cortical neurons; hyper-excited by 1 mM 4AP, n=6, mean±SEM): 50.9±8.8 % of control | frequency of spiking (rat E18 cortical neurons; hyper-excited by 1 mM 4AP, n=7, mean±SEM): 50.5±7.5 % of control | frequency of bursting (rat E18 cortical neurons; hyper-excited by removal of magnesium, n=5, mean±SEM): 54.8±7.1 % of control | frequency of spiking (rat E18 cortical neurons; hyper-excited by removal of magnesium, n=7, mean±SEM): 62.2±3.8 % of control | frequency of spiking (rat E18 cortical neurons; normal magnesium external solution, n=7): no significant effect | frequency of bursting (rat E18 cortical neurons; normal magnesium, n=7): no significant effect | frequency of bursting (rat E18 cortical neurons; reduced magnesium (0.1 mM Mg++), n=4): no significant effect | frequency of spiking (rat E18 cortical neurons; reduced magnesium (0.1 mM Mg++), n=4, p>0.05): small depression of spiking | ED50 (anticonvulsant efficacy): 17.3 mg/kg

C#Cc1ccc2c(c1)C(c1ccccc1)=NCc1c(-c3cnco3)ncn1-2 [KRM-II-82, 5-(8-ethynyl-6-phenyl-4H-benzo[f]imidazo[1,5-a][1,4]diazepin-3-yl)oxazole]
PTZ Threshold to Criteria (PTZ seizure threshold): 30 mg/kg | PTZ Threshold Poteny (MED) (PTZ seizure threshold): 10 mg/kg | effect on dose of PTZ required to induce convulsions (PTZ seizure threshold): increased the dose of PTZ required to induce convulsions
